Data published in US10736912B2, “Compositions containing PUFA and/or uridine and methods of use thereof” (MASSACHUSETTS INSTITUE OF TECHNOLOGY, priority 2005, dated 2020).

Legend:
PC-12 cells = test: 14C-choline incorporation into phospholipids in PC-12 cells; type: cell-based
Description: PC-12 cells were maintained in Dulbecco's modified Eagle's medium (DMEM)+10% fetal bovine serum (FBS). For experiments, cells were grown in quintuplicate collagen-coated 35 millimeter (mm) dishes. Cells were incubated for 18 hours (hr) in serum-free DMEM containing 28 μM choline+/−5 micromolar (μM) of DHA, oleic acid, or palmitic acid. Cells were then labeled for 2.5 hr with 0.5 microcurie (μCi)/ml ^14C-choline in serum-free DMEM containing 10-micromolar (μM) choline.
Cells were homogenized in 100 volumes of ice-cold deionized water using a tissue degrader (Polytron PT 10-35, Kinematica AG, Switzerland); 1 ml of aliquots were then mixed with 3 ml of chloroform+methanol mixture (2:1 v/v) and vortexed vigorously for 30 seconds. After cooling for 1 h on ice, the mixture was mixed sequentially with 3 ml of chloroform+methanol mixture (2:1 v/v) and 1 ml of ice-cold deionized water. The mixture was vortexed vigorously and allowed to stand overnight in the cold room (18 h). The organic (lower) and aqueous (upper) phases of the mixtures were separated by centrifugation (10 min at 4° C.; 1000 g). An aliquot (2 ml) of the upper phase was used for determination of CDP-Choline (see below), and 0.1-0.4 ml aliquots of the lower phase were dried under vacuum for phospholipid analysis. Residues of 0.1 ml aliquots of the lower phase were assayed for total phospholipid content by measuring phosphorus. Residues of 0.4 ml aliquots of the lower phase were reconstituted in 40 μl methanol and subjected to thin-layer chromatography using silica G plates (Adsorbosil Plus-1®, Alltech), and a system consisting of chloroform/ethanol/triethylamine/water (30:34:30:8) as the mobile phase. Phospholipid standards were used to identify the corresponding bands under UV light after the plates were sprayed with 0.1% diphenylhexatriene in petroleum ether. Bands for individual phospholipid classes (PC, PE, SM, PS and PI) were scraped off the plates and extracted into 1 ml of methanol; dried under vacuum; and assayed for phosphorus content. Total phosphorus was determined by comparison with standard curves by using KH2PO4 run with each assay. […] Absorbance was measured spectrophotometrically at 820 nm. Phospholipid mass was determined by multiplying the phosphorus content by 25.
In order to assess the effect of omega-3 fatty acids on phospholipid synthesis, PC-12 cells were incubated with ^14C-labeled choline, following an 18-hour pre-incubation with or without DHA. Incorporation of label into phospholipids was then measured. […]
To further characterize the stimulation of phospholipid synthesis by omega-3 fatty acids, PC-12 cells were pre-treated with different doses of DHA and exposed to labeled choline as described in Example 1, then incorporation of ^14C-label into phospholipids was measured. […]

SHSY-5Y cells = test: 14C-choline incorporation into phospholipids in SHSY-5Y cells; type: cell-based, human; conditions: 10 μM fatty acid, 18 hr; FIG. 3A
Description: SHSY-5Y cells were grown to near confluency in DMEM+10% FBS in 35 mm dishes. Cells were incubated for 18 hr in serum-free DMEM+1% FBS containing 30 μM choline+/−10 μM of DHA, arachidonic acid, or palmitic acid. Cells were then labeled, and labeled phospholipids were quantified as described for Example 1.
DHA was dissolved in ethanol to a […] concentration and frozen in 10 microliter aliquots at −80° C. For each experiment, one aliquot was diluted in ethanol to 10 micromolar; the volume giving the desired final solution in incubation medium was mixed with an equal volume of BSA solution (1 gm/ml).
The effect of omega-6 fatty acids on phospholipid synthesis was next examined in SHSY-5Y cells, a human neuroblastoma cell line. In this case, phospholipid synthesis was enhanced by arachidonic acid, an omega-6 fatty acid, but not by DHA or palmitic acid (FIG. 3A).
The effect of arachidonic acid on phospholipid synthesis in SHSY-5Y cells was further characterized as described for omega-3 fatty acids and PC-12 cells in Example 2.

[1] = test system: brain phospholipid levels; test: Brain phospholipid levels in rat pups of treated pregnant and nursing mothers; type: in vivo; conditions: for PC / PE / PI / SM / Total Phospholipids: rat pups, postnatal day 20, mean
Description: In another study, pregnant rats were allowed to consume ad libitum, for 10 days before parturition and 20 days while nursing, either a choline-containing control diet or this diet supplemented with uridine as UMP; half of each group also received DHA or its diluent daily, by gavage. Pups were then sacrificed and brain slices were examined to determine numbers of hippocampal dendritic spines.
Pregnant and nursing rats were administered DHA and/or uridine as described in Example 9. At 20 days post-birth, rats were sacrificed and brain samples were obtained and assayed for phospholipids. Administration of DHA alone increased brain PC, PI, PE, and sphingomyelin (SM) per cell (DNA) by 36, 166, 38, and 78%, respectively. UMP markedly amplified the effects of DHA to 66, 210, 68, and 99% of control, respectively (Table 8). These increases were greater than those observed in adult animals. Similar results were obtained when normalizing to protein (Table 9). Thus, administration of DHA and/or uridine to pregnant and nursing mothers is able to increase phospholipid levels in the offspring.

Rat hippocampal cells = test: 14C-choline incorporation into PC in cultured hippocampal neurons; type: cell-based; conditions: DHA+choline pre-treatment; 14C-choline 2 h; FIG. 10
Description: Rat hippocampal cells were cultured for 3 weeks in Neutrobasal plus B27 medium, to reach full maturation. On the day of the experiment, cells were incubated with DMEM+choline, with or without added DHA. ^14C-choline was added, cells were incubated for an additional 2 h, and newly-formed ^14C-labeled PC was extracted and measured as described in Example 1.
To determine the effect of DHA on phospholipids in neurons in short-term culture, neurons were pre-treated with DHA+choline. […] These findings confirm that DHA increases phospholipid levels in brain and neural cells.

[2] = Table 9, nmol per microgram DNA

**Q.** For `CCC=CCC=CCC=CCC=CCC=CCC=CCCC(=O)O` [DHA, 4,7,10,13,16,19-docosahexaenoic acid], which “Phosphatidylcholine (PC) synthesis significantly increased (incorporation of 14C label into PC)” value (PC-12 cells; 5 μM fatty acid, 18 hr pre-incubation, then 14C-choline 2.5 hr, FIG. 1) is on record?
**A.** Its value is “significantly increased”.

**Q.** What about the “Augmentation of phospholipid synthesis” value (PC-12 cells; different doses of DHA, FIG. 2) of the same compound?
**A.** Its value is “dose-dependent”.

**Q.** What about the Phospholipid synthesis enhanced (SHSY-5Y cells) of the same compound?
**A.** Its Phospholipid synthesis enhanced is “not”.

**Q.** And the PC ([1]; Table 8, nmol per mg protein)?
**A.** The PC was 115.7 nmol/mg protein.

**Q.** And the PE ([1]; Table 8, nmol per mg protein)?
**A.** The PE was 95.7 nmol/mg protein.

**Q.** What about the PI ([1]; Table 8, nmol per mg protein) of the same compound?
**A.** Its PI is 5.49 nmol/mg protein.

**Q.** And the SM ([1]; Table 8, nmol per mg protein)?
**A.** The SM was 7.52 nmol/mg protein.

**Q.** And the “Total Phospholipids” value ([1]; Table 8, nmol per mg protein)?
**A.** Its value is 322.8 nmol/mg protein.

**Q.** And the PC [1, 2]?
**A.** The PC was 12.02 nmol/microgram DNA.

**Q.** And the PE [1, 2]?
**A.** Its PE is 9.98 nmol/microgram DNA.

**Q.** What about the PI [1, 2] of the same compound?
**A.** Its PI is 0.571 nmol/microgram DNA.

**Q.** And the SM [1, 2]?
**A.** Its SM is 0.792 nmol/microgram DNA.

**Q.** And the “Total Phospholipids” value [1, 2]?
**A.** Its value is 33.80 nmol/microgram DNA.

**Q.** What about the “Increase in brain PC per cell (DNA)” value ([1]; rat pups 20 days post-birth) of the same compound?
**A.** Its value is 36%.

**Q.** What about the “Increase in brain PE per cell (DNA)” value ([1]; rat pups 20 days post-birth) of the same compound?
**A.** The value was 38%.

**Q.** And the “Increase in brain PI per cell (DNA)” value ([1]; rat pups 20 days post-birth)?
**A.** The value was 166%.

**Q.** What about the “Increase in brain sphingomyelin (SM) per cell (DNA)” value ([1]; rat pups 20 days post-birth) of the same compound?
**A.** The value was 78%.

**Q.** What about the “Increase in synthesis of phospholipids relative to cells administered choline alone” value (Rat hippocampal cells) of the same compound?
**A.** The value was “more than 2 fold”.
